Laboratory results reported in patent US12185774B2, “Methods and devices for preventing viral transmission” (priority 2020, dated 2025).

Key:
HUVEC cells [1] = assay: Electric-field-induced elongation of endothelial cells (long:short axis ratio); assay type: cell-based
Description: HUVEC cells were seeded in a trough formed by two parallel (1 cm apart) strips of glass coverslip (No. 1, length of 22 mm) fixed to the base of the dish with silicone grease. Scratch lines were made perpendicular to the long axis of the chamber with a fine sterile needle and used as reference marks for directed cell migration. Cells were incubated for 24-48 hours (37° C., 5% CO2) before a roof coverslip was applied and sealed with silicone grease. The final dimensions of the chamber, through which current was passed, were 22×10×0.2 mm. Agar-salt bridges not less than 15 cm long were used to connect silver/silver-chloride electrodes in beakers of Steinberg's solution (58 mM NaCl, 0.67 mM KCl, 0.44 mM Ca(NO3)2, 1.3 mM MgSO4, 4.6 mM Trizma base, pH 7.8-8.0), to pools of excess culture medium at either side of the chamber. Field strengths were measured directly at the beginning of, the end of and during each experiment. No fluctuations in field strength were observed. […] (50 μM), the Rho kinase inhibitor Y27632 (50 μM), both Akt and Rho kinase inhibitors (10 μM each) or latrunculin (50 nM) for 1 hour before EF stimulation. The same concentration of drug was present during EF exposure in a CO2 incubator.
A series of images was taken with an image analyser immediately before EF exposure and at 4, 8 and 24 hours of EF exposure. Cell orientation was quantified as an orientation index (Oi), which is defined as Oi=cos2 (a), where a is the angle formed by the long axis of a cell with a line drawn […] to the field lines. A cell with its long axis parallel to the vector of the EF will have an Oi of −1, and a cell with its long axis exactly perpendicular to the EF vector will have an Oi of +1. […] The significance of this two-dimensional orientation distribution against randomness was calculated using Rayleigh's distribution. A long:short axis ratio was calculated for assessment of elongation.
HUVEC cells elongated dramatically in an EF. […] We quantified the elongation of the cells using a long:short axis ratio. […]

HUVEC cells [2] = assay: Electric-field-induced reorientation of endothelial cells (orientation index Oi); assay type: cell-based; details: for orientation response in EF (in words): inhibitors 50 μM (latrunculin 50 nM), 1 hour before and during EF
Description: A series of images was taken with an image analyser immediately before EF exposure and at 4, 8 and 24 hours of EF exposure. Cell orientation was quantified as an orientation index (Oi), which is defined as Oi=cos2 (a), where a is the angle formed by the long axis of a cell with a line drawn perpendicular to the field lines. A cell with its long axis parallel to the vector of the EF will have an Oi of −1, and a cell with its long axis exactly perpendicular to the EF vector will have an Oi of +1. A randomly oriented population of cells will have an average Oi {defined as [Σn cos2(α)]+n} of 0. The significance of this two-dimensional orientation distribution against randomness was calculated using Rayleigh's distribution. A long:short axis ratio was calculated for assessment of elongation.
Cell alignment was quantified using an orientation index Oi=cos2(α), where a is the angle formed between the long axis of a cell and a line drawn perpendicular to the field lines. In cells oriented perpendicular to the field vector, the Oi is +1, cells parallel to the field vector give an Oi of −1 and random orientation gives an Oi of 0.

[3] = tested on: HaCaT human keratinocytes; assay: Scratch assay, HaCaT keratinocyte migration, Example 3; details: catalase over-expression; 5 mM N-acetylcysteine 1 h pretreatment; 50 nM IGF-1R inhibitor
Description: Cell culture—Immortalized HaCaT human keratinocytes were grown in Dulbecco's low-glucose modified Eagle's medium (Life Technologies, Gaithersburg, MD, U.S.A.) supplemented with 10% fetal bovine serum, 100 U/ml penicillin, and 100 g/ml streptomycin. The cells were maintained in a standard culture incubator with humidified air containing 5% CO2 at 37° C.
Scratch assay—A cell migration assay was performed using culture inserts (IBIDI®, Verona, WI) according to the manufacturer's instructions. Cell migration was measured using time-lapse phase-contrast microscopy following withdrawal of the insert. Images were analyzed using the AxioVision Rel 4.8 software.
N-Acetyl Cysteine Treatment—Cells were pretreated with 5 mM of the thiol antioxidant N-acetylcysteine (Sigma) for 1 h before start of the scratch assay.
IGF-1R inhibition—When applicable, cells were preincubated with 50 nM IGF-1R inhibitor, picropodophyllin (Calbiochem, MA) just prior to the Scratch Assay.
Catalase gene delivery—HaCaT cells were transfected with 2.3×10^7 pfu AdCatalase or with the empty vector as control in 750 μL of media. Subsequently, 750 μL of additional media was added 4 h later and the cells were incubated for 72 h.

Compound | long:short axis ratio / elongation response in EF-treated cells (in words) (HUVEC cells [1]) | orientation response in EF (in words) (HUVEC cells [2]) | effect on the increased migration triggered by LLEC [3] | other results
1-L-6-hydroxymethyl-chiro-inositol 2-[(R)-2-O-methyl-3-O-octadecylcarbonate] [Akt inhibitor] | significantly decreased the long:short axis ratio | significantly decreased the orientation response |  | 
C/C1=C/C(=O)O[C@@H]2C[C@@H](CC[C@H](C)/C=C\C=C\CC1)O[C@@](O)([C@@H]1CSC(=O)N1)C2 [Latrunculin A] | completely abolished the EF-induced elongation response | suppressed the orientation response significantly |  | 
CC(=O)N[C@@H](CS)C(=O)O [N-Acetyl Cysteine] |  |  | failed to reproduce the increased migration | 
COc1cc2ncnc(Nc3ccc(Cl)cc3F)c2cc1OC [VEGFR inhibitor, 4-[(4′-chloro-2′-fluoro)phenylamino]-6,7-dimethoxyquinazoline] |  | completely abolished the reorientation |  | 
N#CC(=C(/N)Sc1ccccc1N)/C(C#N)=C(\N)Sc1ccccc1N [U0126] |  | decreased the orientation to a similar extent |  | 
catalase |  |  | attenuated the increased migration | 
C[C@@H](N)[C@H]1CC[C@H](C(=O)Nc2ccncc2)CC1 [Y27632] | significantly decreased the long:short axis ratio |  |  | orientation index Oi (HUVEC cells [2]; value in sentence on U0126 (50 μM)): 0.33±0.03
COc1cc([C@@H]2c3cc4c(cc3[C@H](O)[C@H]3COC(=O)[C@@H]23)OCO4)cc(OC)c1OC [IGF-1R inhibitor, picropodophyllin] |  |  | attenuated the increased keratinocyte migration | 
